Experimental data: PubChem BioAssay (NCI)
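These data come from cells grown in 96-well plates and exposed to compound for 48 hours at five concentrations. TGI: total growth inhibition.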

What was measured:
Assay in all cases: NCI tumour cell line growth inhibition, 48 h
MALME-3M melanoma = system: MALME-3M melanoma
MDA-MB-231 breast = system: MDA-MB-231 breast
UACC-257 melanoma = system: UACC-257 melanoma
BT-549 breast = system: BT-549 breast
U251 CNS = system: U251 CNS
OVCAR-8 ovarian = system: OVCAR-8 ovarian
SK-MEL-28 melanoma = system: SK-MEL-28 melanoma
HOP-92 NSCLC = system: HOP-92 NSCLC
OVCAR-4 ovarian = system: OVCAR-4 ovarian
RXF 393 renal = system: RXF 393 renal

| Structure (SMILES) | TGI (MALME-3M melanoma) [µM] | TGI (MDA-MB-231 breast) [µM] | TGI (UACC-257 melanoma) [µM] | TGI (BT-549 breast) [µM] | TGI (U251 CNS) [µM] | TGI (OVCAR-8 ovarian) [µM] | TGI (SK-MEL-28 melanoma) [µM] | TGI (HOP-92 NSCLC) [µM] | TGI (OVCAR-4 ovarian) [µM] | TGI (RXF 393 renal) [µM] |
| --- | --- | --- | --- | --- | --- | --- | --- | --- | --- | --- |
| O=C(OCC1OC2OC(c3ccccc3)(n3ccc4c([N+](=O)[O-])ccnc43)OC2C1OC(=O)c1ccccc1)c1ccccc1 (stereo not drawn) | > 100 | > 100 | > 100 | > 100 | > 100 | > 100 | > 100 | > 100 | > 100 |  |
| CN(C)c1ccc(C2SCC(=O)N2NS(=O)(=O)c2cccc(C(=O)O)c2)cc1 (stereo not drawn) | > 100 | > 100 | > 100 | > 100 | > 100 | 32.6 | > 100 | > 100 |  | > 100 |
| O=c1nc2c(c(-c3ccccc3Cl)[nH]1)COC/C2=C\c1ccccc1Cl |  | > 100 | > 100 | > 100 | > 100 | > 100 | > 100 | > 100 | > 100 | > 100 |
| CCOC(=O)c1ccc(N2C(=S)N(C(=O)c3ccccc3)C(=Nc3ccccc3)C2=Nc2ccccc2)cc1 | > 100 |  | > 100 | > 100 | > 100 | > 100 | > 100 | 78.7 |  |  |
| CCCC(C)NC1=C(NC(C)=O)C(=O)c2ccccc2C1=O (stereo not drawn) | > 100 |  | > 100 |  | > 100 | > 100 | > 100 | > 100 | > 100 | > 100 |
| Cc1cc(C)[n+](CCOc2ccc(/C(=C(/Cl)c3ccccc3)c3ccccc3)cc2)c(C)c1 | 3.64 |  | 3.28 |  | 4.14 | 8.41 | 3.58 | 2.7 | 13.5 | 7.77 |
| O=C(O)CC[N+]1=CCC(c2ccccc2)(c2ccccc2)O1 |  | > 100 | > 100 | > 100 | > 100 | > 100 | > 100 | > 100 | > 100 | > 100 |
| CCC1(C(=O)OC(C)(C)C)OC12C(C)CCCC2C (stereo not drawn) | > 100 | > 100 | > 100 | > 100 | > 100 | > 100 | > 100 | 85.9 | > 100 | 36.4 |
| COc1ccc(Nc2nc(NS(=O)(=O)c3cc(C)c(Cl)cc3S)n[nH]2)cc1 | > 100 | > 100 | > 100 | > 100 | > 100 | > 100 | > 100 | > 100 | > 100 | > 100 |
| CCc1ccc2oc(-c3cc(O)c(-c4nc5cc(CC)ccc5o4)cc3O)nc2c1 |  | > 100 |  |  | > 100 | > 100 | > 100 | > 100 |  |  |
| COC(=O)C1=C2SCc3cccc(c3)CSC3=C(C(=O)OC)SC(=C(S2)S1)S3 |  | 74.9 | > 100 |  | > 100 |  | > 100 |  | > 100 | > 100 |
| CN(C)Cc1cc(C(=O)/C=C/c2ccccc2Cl)cc(CN(C)C)c1O | 23.5 | 24.6 | 30.1 | 20 | 27 | 31.9 | 27.9 | 39.6 |  | 41.7 |
| COC(=O)[C@@H]1CCCN1CCN1CCC[C@H]1C(=O)OC | > 100 | > 100 |  |  | > 100 | > 100 | > 100 | > 100 | > 100 | > 100 |
| CC1Cn2c(nc3ccccc32)NC1=O (stereo not drawn) | > 100 | > 100 | > 100 | > 100 | > 100 | > 100 |  | > 100 | > 100 | > 100 |
| O=C(O)c1ccc(S(=O)(=O)c2ccccc2[N+](=O)[O-])cc1 | > 10 | > 10 | > 10 | > 10 | > 10 | > 10 | > 10 |  | > 10 | > 10 |
| NC(=O)NNC(=O)c1nc[nH]c1[N+](=O)[O-] | > 100 | > 100 | > 100 | > 100 | > 100 | > 100 | > 100 |  | > 100 | > 100 |
| Cc1ccc2c(c1)[nH]c1cc(C(F)(F)F)ccc1[p+]2=O (stereo not drawn) | > 100 | 49.1 | 66 |  | > 100 | > 100 | > 100 | 54.5 | 79.2 | > 100 |
| Cc1ccc2nc(Cl)c(/C=N/N3C(=O)/C(=C/c4ccccc4S)N=C3c3ccccc3)cc2c1 |  | > 100 | > 100 | > 100 | > 100 | > 100 | > 100 | > 100 | > 100 |  |
| CC(=O)C1=C(C)NC2C=CC=CN12 (stereo not drawn) | > 100 |  | > 100 |  | > 100 | > 100 | > 100 | > 100 | > 100 | > 100 |
| O=C1c2ccccc2-c2nc(-c3cccc([N+](=O)[O-])c3)nnc21 | 38.4 | > 100 | 13.3 | 36.7 | > 100 | 86.7 |  | > 100 | > 100 | > 100 |
| C1CNCCNCCN1 |  | > 100 | > 100 | > 100 | > 100 | > 100 | > 100 | > 100 | > 100 | > 100 |
| CCCCCC(=O)NC(=S)Nc1nn[nH]n1 | > 100 | > 100 | > 100 |  | > 100 |  | > 100 | > 100 | > 100 | > 100 |
| CCCSc1ccc2[nH]c(/N=C/c3ccco3)cc2c1 | > 100 |  | > 100 | > 100 |  | > 100 | > 100 | > 100 | > 100 | > 100 |
| COc1ccc(O)cc1 | > 100 |  | > 100 |  | > 100 | > 100 | > 100 | > 100 | > 100 | > 100 |
| CN(O)C(=O)c1cccc(Cl)c1 |  | > 100 | > 100 | > 100 | > 100 | > 100 | > 100 | > 100 | > 100 | > 100 |

| Structure (SMILES) | TGI (MALME-3M melanoma) [µM] | TGI (MDA-MB-231 breast) [µM] | TGI (UACC-257 melanoma) [µM] | TGI (BT-549 breast) [µM] | TGI (U251 CNS) [µM] | TGI (OVCAR-8 ovarian) [µM] | TGI (SK-MEL-28 melanoma) [µM] | TGI (HOP-92 NSCLC) [µM] | TGI (OVCAR-4 ovarian) [µM] | TGI (RXF 393 renal) [µM] |
| --- | --- | --- | --- | --- | --- | --- | --- | --- | --- | --- |
| CCN1C(=O)C(=C/C=C/c2ccc([N+](=O)[O-])cc2)C(=O)N(CC)C1=S |  | 47 | 32.2 | 32.5 | 32.4 | 39.7 | 31.9 | 34.2 | > 100 | 33.1 |
| O=C1Nc2c(ccc(Cl)c2I)C1=O | 28.3 |  |  |  | 56.9 | 76.7 | 32.7 |  | 31.6 | 31.3 |
| NCCSc1nc2ccccc2c(=O)n1-c1ccccc1 | > 100 | > 100 | > 100 | > 100 | > 100 | > 100 | > 100 | 65.5 | > 100 |  |
| Cc1cc(C2(O)C=C(C(C)(C)C)C(=O)C(C(C)(C)C)=C2)c(C)cc1C1(O)C=C(C(C)(C)C)C(=O)C(C(C)(C)C)=C1 | > 100 | > 100 | > 100 | > 100 | > 100 | > 100 | > 100 |  | > 100 |  |
| O=C(Cc1ccccc1)NN1C(=O)/C(=C\c2cccc(O)c2)SC1=Nc1ccccc1 |  | > 100 | > 100 |  | > 100 | > 100 | > 100 |  | > 100 | > 100 |
| CCCCCCCCCCCCCCCCCC(=O)O[C@H](COC(=O)CCCCCCCCCCC)COC(=O)CCCCCCCCCCCCCCC | > 100 |  | > 100 |  | > 100 | > 100 | > 100 | > 100 | > 100 |  |
| O=c1[nH]nc(Cc2ccc([N+](=O)[O-])cc2)n1CCO | > 100 | > 100 | > 100 | > 100 | > 100 | > 100 | > 100 | > 100 | > 100 |  |
| N#C/C(=C\n1ccc(=O)[nH]c1=S)C(N)=O | > 100 | > 100 | > 100 |  | > 100 | > 100 | > 100 | > 100 | > 100 | > 100 |
| OCC1OC(n2cnc3c(Cl)nc(Nc4ccccc4)nc32)CC1O (stereo not drawn) | 37.8 | > 100 | > 100 | > 100 | > 100 | > 100 |  | 6.87 | > 100 | > 100 |
| CCC(C#N)NC(=O)NC(C#N)CC (stereo not drawn) | > 100 | > 100 | > 100 | > 100 | > 100 | > 100 |  | > 100 | > 100 | > 100 |
| NC1=NS(=O)(=O)Nc2nc(-c3ccc([N+](=O)[O-])cc3)[nH]c21 | > 100 |  |  |  | > 100 | > 100 | > 100 | > 100 | > 100 | > 100 |
| c1cc2nnnn2nc1N1CCCC1 |  | > 100 | > 100 |  | > 100 | > 100 | > 100 | > 100 | > 100 | > 100 |
| CNC(=O)Oc1ccc(-c2cn3cc(OC(=O)NC)ccc3n2)cc1 |  | > 100 | > 100 | > 100 | > 100 | > 100 | > 100 | > 100 | > 100 | > 100 |
| CCOC(=O)/C=C(/C(=O)OCC)n1ccc(N)nc1=O | > 100 | > 100 | > 100 | > 100 | > 100 | > 100 | > 100 | > 100 | > 100 |  |
| Nn1c(CCCCCCCCc2nnc(COc3ccc(Cl)cc3)n2N)nnc1COc1ccc(Cl)cc1 | > 100 | > 100 | > 100 | > 100 | > 100 |  | > 100 | > 100 | > 100 | > 100 |
| CCn1nc2c3c(ncn3C(C)(C)O2)c1=O | > 100 | > 100 | > 100 | > 100 | > 100 |  | > 100 | > 100 | > 100 | > 100 |
| NC1=NS(=O)(=O)Nc2nc(-c3ccc(Cl)cc3)c(-c3ccc(Cl)cc3)nc21 | > 100 |  | > 100 |  | > 100 | > 100 | > 100 | > 100 | > 100 | > 100 |
| COC(=O)N/N=C(\C)C(CN1CCCCC1)C(C1=C(O)c2ccccc2OC1)c1ccccc1 (stereo not drawn) | > 100 |  | > 100 |  | > 100 | > 100 | > 100 |  | > 100 | > 100 |
| COc1cc(C2SCC(=O)N2c2ccc(-c3ccc(-n4c(-c5ccccc5)nc5ccccc5c4=O)cc3)cc2)cc(OC)c1OC (stereo not drawn) | > 100 | > 100 |  | 55.4 | > 100 | > 100 | > 100 | > 100 | > 100 |  |
| C/C=C/C(O)P1(=O)N(Cc2ccccc2)[C@@H]2CCCC[C@H]2N1Cc1ccccc1 (stereo partly drawn) | > 25 | > 25 | > 25 | > 25 | > 25 | > 25 | > 25 |  | > 25 | > 25 |
| C1CCC2C(C1)CCCC2NC1=NCCO1 (stereo not drawn) | > 100 | > 100 | > 100 |  | > 100 | > 100 | > 100 |  | > 100 | > 100 |
| O=C(CSc1nnc(Cc2ccccc2)o1)Nc1ccc([N+](=O)[O-])cc1 | > 100 |  | > 100 |  | > 100 | > 100 | > 100 |  | > 100 | > 100 |
| CC(=O)Nc1cc2c(s1)CCC1CC(=O)NN=C21 (stereo not drawn) | > 100 |  |  |  | > 100 | > 100 | > 100 |  | > 100 | > 100 |
| CC(=O)OC1CC2C(C)(C)OC(=O)CC(OC(C)=O)[C@]2(C)C2CCC3(C)C(=CCC3[C@H]3COC(=O)C3)[C@]12C (stereo partly drawn) | > 100 |  |  |  | > 100 | > 100 | > 100 | > 100 | > 100 | > 100 |
